The target of assay [1] is T1, human LXRα (Homo sapiens, UniProt Q13133).
T1 construct: biotin (biotinylated); made in house; host or cells: E. coli (crude extract)
T1 sequence (Q13133 1-447): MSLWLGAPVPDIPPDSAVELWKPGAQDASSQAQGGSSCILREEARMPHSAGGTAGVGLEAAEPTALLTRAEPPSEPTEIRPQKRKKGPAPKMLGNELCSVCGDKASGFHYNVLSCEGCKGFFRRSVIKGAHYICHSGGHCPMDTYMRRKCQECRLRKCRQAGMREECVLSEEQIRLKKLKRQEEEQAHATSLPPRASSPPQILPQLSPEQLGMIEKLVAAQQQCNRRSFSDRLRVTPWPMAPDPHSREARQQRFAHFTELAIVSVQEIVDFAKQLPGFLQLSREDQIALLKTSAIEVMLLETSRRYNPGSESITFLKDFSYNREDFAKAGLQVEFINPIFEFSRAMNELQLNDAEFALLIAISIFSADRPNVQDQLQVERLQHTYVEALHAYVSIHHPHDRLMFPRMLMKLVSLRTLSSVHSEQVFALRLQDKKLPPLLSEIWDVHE
Put plainly: Ligand-binding test procedure for human LXRα (3H T0901317 tracer, flash plates). To be noted: biotinylated hLXRα from E. coli extract, +4° C. over night, read-out: hLXRa binding assay Mean IC50. On the procedure: II. Ligand-Binding Test Procedure for Human LXRα.
(§1) Buffer: 100 mM KCl, 100 mM TRIS (pH 7.4 at +4° C.), 8.6% glycerol, 0.1 mM PMSF*, 2 mM MTG*, 0.2% CHAPS (* not used in wash buffer)
Receptor source: E. coli extract from cells expressing biotinylated hLXRα. Extract was made in a similar buffer as above, but with 50 mM TRIS.
(§2) Washed streptavidin and coated flash plates with wash buffer.
(§3) Diluted receptor extract to give Bmax ˜4000 cpm and add to the wells.
(§4) Wrapped the plates in aluminum foil and stored them at +4° C. over night.
(§5) Made a dilution series in DMSO of the test ligands.
(§6) Made a 5 nM solution of the radioactive tracer in buffer.
Mixed 250 μl diluted tracer with 5 μl of the test ligand from each concentration of the dilution series.
(§7) Washed the receptor-coated flash plates.
(§8) Added 200 μl per well of the ligand/radiolabel mixture to the receptor-coated flash plates.
(§9) Wrapped the plates in aluminum foil and incubate at +4° C. over night.
(§10) Aspirated wells, and wash the flashed plates. Sealed the plate.
(§11) Measured the remaining radioactivity in the plate.

Assay [2] deals with T2, human LXRβ (Homo sapiens, UniProt P55055).
T2 construct: biotin (biotinylated); made in house; host or cells: E. coli (crude extract)
T2 sequence (P55055 1-460): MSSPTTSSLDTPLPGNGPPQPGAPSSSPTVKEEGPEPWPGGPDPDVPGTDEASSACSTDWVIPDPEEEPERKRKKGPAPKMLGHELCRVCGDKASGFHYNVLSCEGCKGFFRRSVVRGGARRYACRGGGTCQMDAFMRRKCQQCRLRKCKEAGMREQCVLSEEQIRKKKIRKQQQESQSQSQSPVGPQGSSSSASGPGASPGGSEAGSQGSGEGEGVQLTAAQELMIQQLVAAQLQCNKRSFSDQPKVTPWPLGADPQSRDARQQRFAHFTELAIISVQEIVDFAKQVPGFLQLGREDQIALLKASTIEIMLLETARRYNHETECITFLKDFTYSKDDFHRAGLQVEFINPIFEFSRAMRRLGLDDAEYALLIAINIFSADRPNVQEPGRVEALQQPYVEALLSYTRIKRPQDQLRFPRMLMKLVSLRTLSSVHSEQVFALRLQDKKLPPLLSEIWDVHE
Description: Ligand-binding test procedure for human LXRβ (3H T0901317 tracer, flash plates). The settings on record: biotinylated hLXRβ from E. coli extract, +4° C. over night, read-out: hLXRB binding assay Mean IC50. On the procedure: I. Ligand-Binding Test Procedure for Human LXRβ.
as §1
Receptor source: E. coli extract from cells expressing biotinylated hLXRβ. Extract was made in a similar buffer as above, but with 50 mM TRIS.
as §2, §3, §4, §5, §6
Mixed 250 μl diluted tracer with 50 of the test ligand from each concentration of the dilution series.
as §7, §8, §9, §10, §11

The structures appear in SMILES notation.

A word on the IC50: it is the concentration that gives 50% inhibition. Turning to `CS(=O)(=O)c1cccc(Oc2cccc(-c3ncnc4c(C(F)(F)F)cccc34)c2)c1` [Example 4, 4-{3-[3-(Methylsulfonyl)phenoxy]phenyl}-8-(trifluoromethyl)quinazoline], the 50% inhibitory concentration (IC50) in assay [1] was 1.82 µM; in assay [2], 0.151 µM.
`CCS(=O)(=O)c1cccc(Oc2cccc(-c3ncnc4c(C(F)(F)F)cccc34)c2)c1` [Example 5, 4-{3-[3-(ethylsulfonyl)phenoxy]phenyl}-8-(trifluoromethyl)quinazoline]: the half-inhibitory concentration (IC50) in assay [1] was determined as 1.57 µM; in assay [2], 0.101 µM.
On to `CC(C)S(=O)(=O)c1cccc(Oc2cccc(-c3ncnc4c(C(F)(F)F)cccc34)c2)c1` [Example 6, 4-{3-[3-(isopropylsulfonyl)phenoxy]phenyl}-8-(trifluoromethyl)quinazoline], for which the figures for the IC50 in assay [1] and in assay [2] were 1.02 µM and 0.063 µM, respectively.
Regarding `COCCCS(=O)(=O)c1cccc(Oc2cccc(-c3ncnc4c(C(F)(F)F)cccc34)c2)c1` [Example 7, 4-(3-{3-[(3-methoxypropyl)sulfonyl]phenoxy}phenyl)-8-(trifluoromethyl)quinazoline], the results for the IC50 in assay [1] and in assay [2] were 4.99 µM and 0.651 µM, respectively.
For the molecule `CCCS(=O)(=O)c1cc(Cl)cc(Oc2cccc(-c3ncnc4c(C(F)(F)F)cccc34)c2)c1` [Example 8, 4-{3-[3-chloro-5-(propylsulfonyl)phenoxy]phenyl}-8-(trifluoromethyl)quinazoline], the IC50 in assay [1] and in assay [2] was more than 1 µM each time.
As for `O=S(=O)(CCCO)c1cc(Cl)cc(Oc2cccc(-c3ncnc4c(C(F)(F)F)cccc34)c2)c1` [Example 9, 3-[(3-chloro-5-{3-[8-(trifluoromethyl)quinazolin-4-yl]phenoxy}phenyl)sulfonyl]propan-1-ol], in assay [1], the IC50 was more than 1 µM.
For `CS(=O)(=O)c1ccc(Oc2cccc(-c3ncnc4c(C(F)(F)F)cccc34)c2)cc1` [Example 10, 4-{3-[4-(methylsulfonyl)phenoxy]phenyl}-8-(trifluoromethyl)quinazoline], the values for the IC50 in assay [1] and in assay [2] were 26.1 µM and 3.62 µM, respectively.
Regarding `CCS(=O)(=O)c1ccc(Oc2cccc(-c3ncnc4c(C(F)(F)F)cccc34)c2)cc1` [Example 11, 4-{3-[4-(ethylsulfonyl)phenoxy]phenyl}-8-(trifluoromethyl)quinazoline], the IC50 in assay [1] was more than 1 µM; in assay [2] it was 2.24 µM.
In the same order, the values of `CCCS(=O)(=O)c1ccc(Oc2cccc(-c3ncnc4c(C(F)(F)F)cccc34)c2)cc1` [Example 12, 4-{3-[4-(propylsulfonyl)phenoxy]phenyl}-8-(trifluoromethyl)quinazoline] are more than 1 µM and more than 1 µM.
As for `CC(C)S(=O)(=O)c1ccc(Oc2cccc(-c3ncnc4c(C(F)(F)F)cccc34)c2)cc1` [Example 13, 4-{3-[4-(isopropylsulfonyl)phenoxy]phenyl}-8-(trifluoromethyl)quinazoline], the 50% inhibitory concentration (IC50) in assay [1] was more than 1 µM; in assay [2], 1.54 µM.
Regarding `CCCS(=O)(=O)c1cccc(Oc2cccc(-c3ncnc4c(C(F)(F)F)cccc34)c2)c1` [Example 15, 4-{3-[3-(propylsulfonyl)phenoxy]phenyl}-8-(trifluoromethyl)quinazoline], the results for the IC50 in assay [1] and in assay [2] were 4.42 µM and 0.449 µM, respectively.
Take `CC(C)CS(=O)(=O)c1cccc(Oc2cccc(-c3ncnc4c(C(F)(F)F)cccc34)c2)c1` [Example 16, 4-{3-[3-(isobutylsulfonyl)phenoxy]phenyl}-8-(trifluoromethyl)quinazoline]: the IC50 in assay [1] and in assay [2] was more than 1 µM throughout.
Take `CC(C)CCS(=O)(=O)c1cccc(Oc2cccc(-c3ncnc4c(C(F)(F)F)cccc34)c2)c1` [Example 17, 4-(3-{3-[(3-methylbutyl)sulfonyl]phenoxy}phenyl)-8-(trifluoromethyl)quinazoline]: the IC50 in assay [1] and in assay [2] was more than 1 µM in each case.
Regarding `O=S(=O)(CCCO)c1cccc(Oc2cccc(-c3ncnc4c(C(F)(F)F)cccc34)c2)c1` [Example 18, 3-[(3-{3-[8-(trifluoromethyl)quinazolin-4-yl]phenoxy}phenyl)sulfonyl]propan-1-ol], the IC50 in assay [1] is 3.54 µM; in assay [2], 0.412 µM.
Regarding `O=S(=O)(CCCO)c1ccc(Oc2cccc(-c3ncnc4c(C(F)(F)F)cccc34)c2)cc1` [Example 19, 3-[(4-{3-[8-(trifluoromethyl)quinazolin-4-yl]phenoxy}phenyl)sulfonyl]propan-1-ol], the IC50 in assay [1] came to 64.8 µM; in assay [2], 19.1 µM.
As to `CS(=O)(=O)c1cc(F)cc(Oc2cccc(-c3ncnc4c(C(F)(F)F)cccc34)c2)c1` [Example 20, 4-{3-[3-fluoro-5-(methylsulfonyl)phenoxy]phenyl}-8-(trifluoromethyl)quinazoline], the IC50 was 6.33 µM in assay [1] and 0.398 µM in assay [2].
In the same order, the values of `Cc1nc(-c2cccc(Oc3cccc(S(C)(=O)=O)c3)c2)c2cccc(C(F)(F)F)c2n1` [Example 21, 2-methyl-4-{3-[3-(methylsulfonyl)phenoxy]phenyl}-8-(trifluoromethyl)quinazoline] are 13.8 µM and 0.433 µM.
For `CS(=O)(=O)c1cccc(Oc2cccc(-c3ncnc4c(Cl)cccc34)c2)c1` [Example 24, 8-chloro-4-{3-[3-(methylsulfonyl)phenoxy]phenyl}quinazoline], the IC50 in assay [1] came out at 5.32 µM; in assay [2], 0.295 µM.
Turning to `CS(=O)(=O)c1cccc(COc2cccc(-c3ncnc4c(C(F)(F)F)cccc34)c2)c1` [Example 25, 4-(3-{[3-(methylsulfonyl)benzyl]oxy}phenyl)-8-(trifluoromethyl)quinazoline], the IC50 in assay [1] came to 2.83 µM; in assay [2], 0.285 µM.
In the case of `CS(=O)(=O)c1cccc(-c2cccc(-c3ncnc4c(C(F)(F)F)cccc34)c2)c1` [Example 27, 4-(3′-Methanesulfonyl-biphenyl-3-yl)-8-trifluoromethyl-quinazoline], the figures for the IC50 in assay [1] and in assay [2] were 1.67 µM and 0.194 µM, respectively.
As to `Cc1nc(-c2cccc(-c3cccc(S(C)(=O)=O)c3)c2)c2cccc(C(F)(F)F)c2n1` [Example 37, 4-(3′-Methanesulfonyl-biphenyl-3-yl)-2-methyl-8-trifluoromethyl-quinazoline], the IC50 in assay [1] was 0.706 µM; in assay [2], 0.069 µM.
As for `Cc1nc(-c2cccc(-c3ccc(S(C)(=O)=O)cc3)c2)c2cccc(C(F)(F)F)c2n1` [Example 38, 4-(4′-Methanesulfonyl-biphenyl-3-0)-2-methyl-8-trifluoromethyl-quinazoline], the IC50 in assay [2] is 6.27 µM.
As to `CCc1nc(-c2cccc(-c3cccc(S(C)(=O)=O)c3)c2)c2cccc(C(F)(F)F)c2n1` [Example 40, 2-ethyl-4-[3′-(methylsulfonyl)biphenyl-3-yl]-8-(trifluoromethyl)quinazoline], the IC50 was 1.14 µM in assay [1] and 0.097 µM in assay [2].
In the same order, the values of `CCCc1nc(-c2cccc(-c3cccc(S(C)(=O)=O)c3)c2)c2cccc(C(F)(F)F)c2n1` [Example 41, 4-[3′-(methylsulfonyl)biphenyl-3-yl]-2-propyl-8-(trifluoromethyl)quinazoline] are more than 1 µM and 0.175 µM.
As for `CC(C)c1nc(-c2cccc(-c3cccc(S(C)(=O)=O)c3)c2)c2cccc(C(F)(F)F)c2n1` [Example 42, 2-isopropyl-4-[3′-(methylsulfonyl)biphenyl-3-yl]-8-(trifluoromethyl)quinazoline], the values for the IC50 in assay [1] and in assay [2] were 3.25 µM and 0.452 µM, respectively.
Take `CS(=O)(=O)c1cccc(-c2cccc(-c3nc(-c4ccccc4)nc4c(C(F)(F)F)cccc34)c2)c1` [Example 43, 4-[3′-(methylsulfonyl)biphenyl-3-yl]-2-phenyl-8-(trifluoromethyl)quinazoline]: the values for the IC50 in assay [1] and in assay [2] were 20.3 µM and 0.309 µM, respectively.

(Values after US20100273816A1, “Quinazoline Compounds” (priority 2007, published 2010).)
